19 compounds from patent US11731946B2, “Broad spectrum antivirulence, anti-persistence compounds” (priority 2017, dated 2023) can be followed below.

For test [1], the system named is MvfR regulon. The test can be described thus: pqsA gene expression (pqsA-GFP reporter). Type of test: cell-based, P. aeruginosa. To be noted: Pseudomonas aeruginosa; for activity at 50 µM: read-out: pqsA @50 uM (%), compound at 50 uM; for activity at 10 µM: read-out: pqsA @10 uM (%), compound at 10 uM. As to the method: Experiments were performed to identify compounds that inhibit the MvfR regulon without altering growth, ultimately attenuating P. aeruginosa infection. MvfR is a LysR-type transcriptional regulator that directs HAQs synthesis, including that of its ligands, 4-hydroxy-2-heptylquinoline (HHQ) and 3,4-dihydroxy-2-heptylquinoline (PQS).
MvfR promotes the production of HAQs by binding to and activating the pqs operon, which encodes enzymes for HAQ synthesis. Anthranilic acid (AA), derived from the phnAB, kynABU, and trpEG pathways, is the precursor for HAQs. pqsA encodes an anthranilate-coenzyme A ligase, which activates anthranilic acid and catalyzes the first committed step to HAQ production. The exact roles of PqsB and PqsC are unknown, though both show homology to acyl-carrier-proteins and both are required for HHQ and PQS production. […] The final gene of the operon, pqsE encodes for a putative hydrolase, and while the protein is not required for the synthesis of HAQs, it is necessary for pyocyanin production.
Nanomolar levels of most of these MvfR antagonists impeded the activity of MvfR and in consequence the MvfR virulence regulated ACRP functions, including: (1) the production of the important pro-acute P. aeruginosa virulence factor pyocyanin (see e.g., FIG. 9A) the efficacy of two of these potent inhibitors, D57 and D88, was also confirmed by testing many different MDR P. aeruginosa clinical isolates (see e.g., FIG. 11A-11B), providing further confidence of their inhibitory potency; (2) the expression of the genes that encode the enzymes catalyzing the synthesis of both pro-acute and pro-persistence MvfR-regulated virulence molecules, 4-hydroxyl-2-alkyl-quinolines (HAQs) and 2-aminoacetophenon (2-AA), as assessed by pqsAGFP reporter gene expression (see e.g., FIG. 9B) and HAQ production showing the levels of MvfR inducers/ligands HHQ and PQS as well as of the molecules critical for biofilm and Antibiotic tolerant/persiters cells formation HQNO and 2-AA (see e.g., FIG. 9C); (3) AT/P cell formation (see e.g., FIGS. 11A, 12A); (4) biofilm formation (see e.g., FIG. 12B); and (5) biofilm dispersal of preformed biofilm by potentiating antibiotic action (see e.g., FIG. 11B).

For test [2], the system named is MvfR regulon. The test can be described thus: Quantification of pyocyanin (OD520nm of chloroform-extracted cultures). The following applies: Pseudomonas aeruginosa; for activity at 50 µM: read-out: pyocyanin @50 uM (%), compound at 50 uM; for activity at 1 µM: read-out: pyocyanin @1 uM (%), compound at 1 uM; for activity at 10 µM: read-out: pyocyanin @10 uM (%), compound at 10 uM; for IC50: read-out: IC50 pyocyanin (μM). Format: cell-based, P. aeruginosa.

Consider `Cc1cc(F)ccc1NCC(=O)Nc1ccccc1Br` [Compound 14], for which the activity at 50 µM was found to be 96.2% in the test with MvfR regulon [1] and 101% in the test on MvfR regulon [2].
As to `Cc1cc(F)ccc1NCC(=O)Nc1cccc([N+](=O)[O-])c1` [Compound 26], the activity at 50 µM in the test on MvfR regulon [1] came to 76.5%; in the test on MvfR regulon [2], 85.2%.
Consider `N#Cc1ccc(NC(=O)CC(=O)Cc2ccc(F)cc2)cc1` [Compound 99], for which the activity at 10 µM with MvfR regulon [1] came to 96.3%. In addition, in the test on MvfR regulon [2], the activity at 1 µM worked out at 92%, the activity at 10 µM stood at 115% and the activity at 50 µM was found to be 102%.
For `O=C(CC(=O)Nc1ccc(Oc2ccccc2)cc1)Nc1ccc(F)cc1` [Compound 83], the activity at 10 µM with MvfR regulon [1] turned out to be 27.7%. For the same compound, in the test with MvfR regulon [2], the IC50 is 0.83 µM, the activity at 1 µM was 44.7%, the activity at 10 µM turned out to be 41.3% and the activity at 50 µM was determined as 33.5%.
For `O=C(CC(=O)Nc1ccc(Oc2ccccc2)cc1)Nc1ccc(Br)cc1` [Compound 79], in the test with MvfR regulon [1], the activity at 10 µM came to 64.5% and the activity at 50 µM turned out to be 60.5%. Also, the activity at 50 µM with MvfR regulon [2] is 47.7%.
For the compound `N#Cc1ccc(NC(=O)C[C@H](Nc2ccc(Oc3ccccc3)cc2)C(F)(F)F)cc1` (racemic) [Compound 108], in the test on MvfR regulon [1], the activity at 10 µM stood at 87% and the activity at 50 µM is 88.4%. Moreover, in the test with MvfR regulon [2], the activity at 1 µM worked out at 91.9%, the activity at 10 µM was 76.8% and the activity at 50 µM was found to be 91%.
In the case of `Cc1ccc(NCC(=O)Nc2ccccc2)c(C)c1` [Compound 41], the activity at 50 µM is 92.8% with MvfR regulon [1] and 94.5% in the test on MvfR regulon [2].
Consider `Cc1cc(F)ccc1NCC(=O)Nc1ccc(C(=O)N(C)C)cc1` [Compound 31], for which the values for the activity at 50 µM in the test with MvfR regulon [1] and in the test on MvfR regulon [2] were 99.8% and 109%, respectively.
For `Cc1cc(F)ccc1NCC(=O)NC1CC1` [Compound 35], in that order: 92.5% and 107%.
For `Cc1cc(NC(=O)CNc2ccc(F)cc2C)ccc1Br` [Compound 43], in that order: 47% and 68.5%.
On to `N#Cc1ccc(NC(=O)CC(=O)Nc2ccc(F)cn2)cc1` [Compound 88], for which, in the test with MvfR regulon [1], the activity at 10 µM stood at 95.1%. In the test on MvfR regulon [2], the activity at 1 µM was determined as 97%, the activity at 10 µM turned out to be 77.7% and the activity at 50 µM is 48.3%.
For `N#Cc1ccc(NC(=O)CC(=O)N2CCc3cc(C#N)ccc32)cc1` [Compound 97], in that order: 99.7%, 99.9%, 74.5% and 82.3%.
For `CC(=O)Nc1cccc(NCC(=O)Nc2ccc(C#N)cc2)c1C` [Compound 39], the activity at 50 µM in the test on MvfR regulon [1] worked out at 99.5%; in the test on MvfR regulon [2] it was 93.4%.
As to `N#Cc1ccc(NC(=O)CC(=O)Nc2ccc(C(F)(F)F)cc2)cc1` [Compound 84], in the test with MvfR regulon [1], the activity at 10 µM amounted to 6.98%. Moreover, in the test with MvfR regulon [2], the half-maximal inhibitory concentration (IC50) was 0.45 µM, the activity at 1 µM came out at 46.8%, the activity at 10 µM was found to be 6.98% and the activity at 50 µM worked out at 6.1%.
For `CNC(=O)NC(=O)CNc1ccc(F)cc1C` [Compound 23], the values for the activity at 50 µM in the test on MvfR regulon [1] and with MvfR regulon [2] were 97% and 101%, respectively.
Taken in the same sequence, the figures for `CC(C)c1ccc(NCC(=O)Nc2ccc(C#N)cc2)cc1` [Compound 45] were 52.8% and 59.1%.
On to `N#Cc1ccc(NC(=O)C(F)(F)C(=O)Nc2ccc(C#N)cc2)cc1` [Compound 112], for which, in the test with MvfR regulon [1], the activity at 10 µM came to 95.4% and the activity at 50 µM amounted to 95.1%. In the test with MvfR regulon [2], the activity at 1 µM was 101%, the activity at 10 µM turned out to be 87.1% and the activity at 50 µM is 93.6%.
On to `N#Cc1ccc(NC(=O)CS(=O)(=O)Nc2ccc(C#N)cc2)cc1` [Compound 96], for which the activity at 10 µM in the test on MvfR regulon [1] came to 118%. Further, in the test with MvfR regulon [2], the activity at 1 µM is 97.3%, the activity at 10 µM was found to be 109% and the activity at 50 µM turned out to be 111%.
Turning to `Cc1cc(F)ccc1NCC(=O)Nc1ccc(Br)cc1C` [Compound 19], the activity at 50 µM amounted to 70% in the test with MvfR regulon [1] and 88.7% in the test with MvfR regulon [2].

A word on the IC50: it is the midpoint of a concentration-inhibition curve.
